Laboratory results as given in paper PMC5342759, “An inhibitor of cholesterol absorption displays anti-myeloma activity by targeting the JAK2-STAT3 signaling pathway” (Oncotarget, 2016).

What was measured:
Test in all cases: HotSpot radiometric kinase assay, purified recombinant human kinase, 10-dose IC50
Type in all cases: biochemical
JAK2 = JAK2 (Homo sapiens, UniProt O60674)
JAK1 = JAK1 (Homo sapiens, UniProt P23458)
JAK3 = biological target: T1, JAK3 (Homo sapiens, UniProt P52333)
T1 sequence (P52333 1-1124): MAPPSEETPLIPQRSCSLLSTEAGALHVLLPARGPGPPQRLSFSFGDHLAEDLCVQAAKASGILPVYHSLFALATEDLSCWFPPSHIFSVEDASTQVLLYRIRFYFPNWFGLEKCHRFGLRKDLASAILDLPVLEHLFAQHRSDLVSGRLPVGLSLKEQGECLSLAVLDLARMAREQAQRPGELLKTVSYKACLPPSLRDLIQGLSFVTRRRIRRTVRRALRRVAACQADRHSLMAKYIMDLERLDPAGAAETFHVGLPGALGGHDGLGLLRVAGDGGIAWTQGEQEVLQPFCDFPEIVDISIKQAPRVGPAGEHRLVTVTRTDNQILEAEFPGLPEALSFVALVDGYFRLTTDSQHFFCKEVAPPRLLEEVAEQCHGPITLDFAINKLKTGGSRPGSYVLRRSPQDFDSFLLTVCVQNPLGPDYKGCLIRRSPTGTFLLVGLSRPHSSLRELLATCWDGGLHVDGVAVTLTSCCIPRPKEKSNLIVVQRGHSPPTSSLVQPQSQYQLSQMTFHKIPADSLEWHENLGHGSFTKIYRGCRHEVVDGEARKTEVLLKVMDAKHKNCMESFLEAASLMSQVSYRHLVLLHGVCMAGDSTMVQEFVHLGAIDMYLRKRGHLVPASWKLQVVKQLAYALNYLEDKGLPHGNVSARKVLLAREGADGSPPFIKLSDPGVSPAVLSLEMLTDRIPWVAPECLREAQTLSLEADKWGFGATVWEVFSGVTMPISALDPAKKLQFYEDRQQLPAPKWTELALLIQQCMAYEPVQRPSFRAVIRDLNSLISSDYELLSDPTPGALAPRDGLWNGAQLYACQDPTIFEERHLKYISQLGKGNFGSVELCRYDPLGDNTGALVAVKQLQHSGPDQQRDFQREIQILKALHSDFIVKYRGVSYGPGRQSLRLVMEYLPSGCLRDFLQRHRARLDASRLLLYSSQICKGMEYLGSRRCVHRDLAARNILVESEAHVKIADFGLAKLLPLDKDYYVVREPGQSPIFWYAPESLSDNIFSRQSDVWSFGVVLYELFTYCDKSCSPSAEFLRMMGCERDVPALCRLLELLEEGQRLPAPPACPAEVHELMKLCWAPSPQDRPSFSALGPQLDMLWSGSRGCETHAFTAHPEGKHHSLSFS

TYK2 = TYK2 (Homo sapiens, UniProt P29597)
TYK2, sequence (P29597 whole entry): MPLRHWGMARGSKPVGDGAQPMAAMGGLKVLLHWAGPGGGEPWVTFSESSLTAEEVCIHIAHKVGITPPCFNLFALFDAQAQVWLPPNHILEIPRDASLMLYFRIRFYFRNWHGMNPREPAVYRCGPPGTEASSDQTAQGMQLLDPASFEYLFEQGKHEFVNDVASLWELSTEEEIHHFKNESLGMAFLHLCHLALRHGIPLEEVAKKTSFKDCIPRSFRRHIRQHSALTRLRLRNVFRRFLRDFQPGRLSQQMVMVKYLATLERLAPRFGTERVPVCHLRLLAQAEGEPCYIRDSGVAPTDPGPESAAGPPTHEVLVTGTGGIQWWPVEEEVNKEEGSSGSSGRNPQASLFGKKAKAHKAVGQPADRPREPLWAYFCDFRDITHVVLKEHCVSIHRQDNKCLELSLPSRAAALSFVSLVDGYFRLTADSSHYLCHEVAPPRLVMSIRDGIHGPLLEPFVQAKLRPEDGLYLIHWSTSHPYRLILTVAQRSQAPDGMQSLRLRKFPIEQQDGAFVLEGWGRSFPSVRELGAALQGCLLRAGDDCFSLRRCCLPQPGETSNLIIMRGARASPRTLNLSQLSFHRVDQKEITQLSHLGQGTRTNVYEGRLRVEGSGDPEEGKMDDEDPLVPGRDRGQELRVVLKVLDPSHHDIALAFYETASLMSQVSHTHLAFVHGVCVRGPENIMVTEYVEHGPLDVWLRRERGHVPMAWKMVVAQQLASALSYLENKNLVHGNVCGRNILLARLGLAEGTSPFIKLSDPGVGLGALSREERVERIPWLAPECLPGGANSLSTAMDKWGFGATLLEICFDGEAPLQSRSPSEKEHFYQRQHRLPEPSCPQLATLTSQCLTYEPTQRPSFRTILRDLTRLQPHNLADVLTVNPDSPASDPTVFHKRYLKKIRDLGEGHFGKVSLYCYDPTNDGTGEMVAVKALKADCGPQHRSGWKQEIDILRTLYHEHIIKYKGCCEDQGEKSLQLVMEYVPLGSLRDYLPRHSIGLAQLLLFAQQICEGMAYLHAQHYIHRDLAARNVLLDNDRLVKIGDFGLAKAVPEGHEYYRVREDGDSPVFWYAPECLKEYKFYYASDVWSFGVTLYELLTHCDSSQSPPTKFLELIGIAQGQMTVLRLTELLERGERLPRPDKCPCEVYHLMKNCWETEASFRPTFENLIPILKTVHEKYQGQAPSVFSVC

JAK1, sequence (P23458 whole entry): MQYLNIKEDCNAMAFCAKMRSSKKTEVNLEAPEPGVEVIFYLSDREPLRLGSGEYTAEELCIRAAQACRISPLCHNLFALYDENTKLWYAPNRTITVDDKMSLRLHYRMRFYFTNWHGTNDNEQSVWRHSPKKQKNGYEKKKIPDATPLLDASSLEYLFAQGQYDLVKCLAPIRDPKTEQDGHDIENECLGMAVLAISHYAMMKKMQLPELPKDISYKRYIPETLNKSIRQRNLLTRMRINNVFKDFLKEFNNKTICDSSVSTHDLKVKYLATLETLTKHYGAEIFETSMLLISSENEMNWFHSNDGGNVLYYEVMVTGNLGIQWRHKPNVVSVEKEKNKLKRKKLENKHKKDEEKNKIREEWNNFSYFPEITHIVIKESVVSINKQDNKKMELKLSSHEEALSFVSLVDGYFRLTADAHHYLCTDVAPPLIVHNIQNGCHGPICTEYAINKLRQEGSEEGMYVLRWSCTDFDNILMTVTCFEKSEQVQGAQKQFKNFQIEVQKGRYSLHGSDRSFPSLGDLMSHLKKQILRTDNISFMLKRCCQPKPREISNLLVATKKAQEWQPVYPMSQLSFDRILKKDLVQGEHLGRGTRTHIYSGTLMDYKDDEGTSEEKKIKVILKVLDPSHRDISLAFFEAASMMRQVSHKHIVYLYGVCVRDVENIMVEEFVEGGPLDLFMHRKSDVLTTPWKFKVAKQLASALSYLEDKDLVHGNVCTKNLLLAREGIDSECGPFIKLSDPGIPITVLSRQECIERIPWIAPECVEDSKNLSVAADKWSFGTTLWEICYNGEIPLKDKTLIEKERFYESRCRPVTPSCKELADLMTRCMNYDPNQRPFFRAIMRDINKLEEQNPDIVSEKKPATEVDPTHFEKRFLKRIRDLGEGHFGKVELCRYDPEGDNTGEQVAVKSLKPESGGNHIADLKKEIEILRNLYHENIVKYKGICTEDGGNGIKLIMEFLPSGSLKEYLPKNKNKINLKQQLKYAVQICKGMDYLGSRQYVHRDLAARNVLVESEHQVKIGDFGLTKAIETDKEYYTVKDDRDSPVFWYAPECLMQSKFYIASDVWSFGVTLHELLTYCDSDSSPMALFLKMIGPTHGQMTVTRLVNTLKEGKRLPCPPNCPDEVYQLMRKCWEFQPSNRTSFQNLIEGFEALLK
JAK2, sequence (O60674 whole entry): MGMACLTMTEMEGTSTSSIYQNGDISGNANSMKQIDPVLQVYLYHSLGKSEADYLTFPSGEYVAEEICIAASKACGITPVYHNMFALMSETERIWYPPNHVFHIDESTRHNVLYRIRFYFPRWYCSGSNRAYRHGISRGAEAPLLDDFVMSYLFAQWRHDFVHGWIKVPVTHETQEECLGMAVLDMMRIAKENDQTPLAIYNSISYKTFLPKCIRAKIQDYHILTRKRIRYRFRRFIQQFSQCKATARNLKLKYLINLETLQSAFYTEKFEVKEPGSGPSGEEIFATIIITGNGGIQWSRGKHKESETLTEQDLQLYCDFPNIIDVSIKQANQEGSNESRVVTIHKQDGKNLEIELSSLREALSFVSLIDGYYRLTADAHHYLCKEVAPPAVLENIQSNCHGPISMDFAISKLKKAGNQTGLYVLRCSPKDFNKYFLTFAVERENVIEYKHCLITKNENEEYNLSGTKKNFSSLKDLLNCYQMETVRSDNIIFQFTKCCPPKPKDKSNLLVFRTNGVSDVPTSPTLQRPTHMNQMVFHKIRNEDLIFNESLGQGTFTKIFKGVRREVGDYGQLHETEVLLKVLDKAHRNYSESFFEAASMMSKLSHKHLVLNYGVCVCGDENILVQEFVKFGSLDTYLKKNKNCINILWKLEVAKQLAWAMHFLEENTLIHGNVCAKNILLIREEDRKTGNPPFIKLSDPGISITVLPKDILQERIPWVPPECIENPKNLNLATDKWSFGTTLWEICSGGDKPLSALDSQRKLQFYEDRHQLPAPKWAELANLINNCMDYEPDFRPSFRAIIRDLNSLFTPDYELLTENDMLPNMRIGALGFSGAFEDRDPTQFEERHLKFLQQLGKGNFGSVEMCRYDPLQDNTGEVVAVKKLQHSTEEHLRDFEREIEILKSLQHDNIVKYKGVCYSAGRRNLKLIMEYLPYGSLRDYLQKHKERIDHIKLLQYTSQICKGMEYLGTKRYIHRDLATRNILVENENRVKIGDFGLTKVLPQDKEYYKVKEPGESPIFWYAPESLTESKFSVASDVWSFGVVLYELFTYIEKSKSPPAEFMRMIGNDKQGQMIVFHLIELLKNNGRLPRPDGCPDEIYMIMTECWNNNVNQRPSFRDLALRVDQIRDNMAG

## N#C/C(=N\Nc1ccc(C(F)(F)F)cc1)S(=O)(=O)c1cccs1 [SC09]
JAK2
  IC50: 8.88 µM
JAK1
  IC50: 153 µM
JAK3
  IC50: 139 µM
TYK2
  IC50: 111 µM
